Results taken from the supplement of paper PMC10307832.

Tests used:
Assay in all cases: relative viability (nuclei count vs DMSO), 5 days (fraction); higher = more cells survive
IU1-47 + Foretinib = compound: CC1=CC(=C(N1C2=CC=C(C=C2)Cl)C)C(=O)CN3CCCCC3 [IU1-47] + COc1cc2c(Oc3ccc(NC(=O)C4(C(=O)Nc5ccc(F)cc5)CC4)cc3F)ccnc2cc1OCCCN1CCOCC1 [Foretinib] (partner 0.25 µM)
Summary of the method: (§1)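 Values are medians from duplicate plates. Each reflects relative viability, defined as the nuclei count of treated wells over that of vehicle wells. Lung cancer cell lines in 1536-well plates were pin-tool dosed one day after seeding with one drug alone or with a fixed anchor-drug dose plus five library-drug doses (not always all listed) in √10 steps, then fixed, stained and imaged at 4× after 5 days.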

FG-4592 + OSI-027 = compound: Cc1nc(C(=O)NCC(=O)O)c(O)c2ccc(Oc3ccccc3)cc12 [FG-4592] + COc1cccc2cc(-c3nc([C@H]4CC[C@H](C(=O)O)CC4)n4ncnc(N)c34)[nH]c12 [OSI-027] (partner 0.5 µM)
Summary of the method: as §1

FG-4592 + Lapatinib = compound: Cc1nc(C(=O)NCC(=O)O)c(O)c2ccc(Oc3ccccc3)cc12 [FG-4592] + CS(=O)(=O)CCNCc1ccc(-c2ccc3ncnc(Nc4ccc(OCc5cccc(F)c5)c(Cl)c4)c3c2)o1 [Lapatinib] (partner 2 µM)
Summary of the method: as §1

FG-4592 + Pemetrexed = compound: Cc1nc(C(=O)NCC(=O)O)c(O)c2ccc(Oc3ccccc3)cc12 [FG-4592] + Nc1nc2[nH]cc(CCc3ccc(C(=O)N[C@@H](CCC(=O)O)C(=O)O)cc3)c2c(=O)[nH]1 [Pemetrexed] (partner 0.2 µM)
Summary of the method: as §1

| Cell Line | relative viability (IU1-47 + Foretinib; first compound 0.08 µM) | relative viability (IU1-47 + Foretinib; first compound 0.253 µM) | relative viability (IU1-47 + Foretinib; first compound 0.8 µM) | relative viability (IU1-47 + Foretinib; first compound 2.53 µM) | relative viability (IU1-47 + Foretinib; first compound 8 µM) | relative viability (FG-4592 + OSI-027; first compound 0.08 µM) | relative viability (FG-4592 + OSI-027; first compound 0.253 µM) | relative viability (FG-4592 + OSI-027; first compound 0.8 µM) | relative viability (FG-4592 + OSI-027; first compound 2.53 µM) | relative viability (FG-4592 + OSI-027; first compound 8 µM) | relative viability (FG-4592 + Lapatinib; first compound 0.08 µM) | relative viability (FG-4592 + Lapatinib; first compound 0.253 µM) | relative viability (FG-4592 + Lapatinib; first compound 0.8 µM) | relative viability (FG-4592 + Lapatinib; first compound 2.53 µM) | relative viability (FG-4592 + Lapatinib; first compound 8 µM) | relative viability (FG-4592 + Pemetrexed; first compound 0.08 µM) | relative viability (FG-4592 + Pemetrexed; first compound 0.253 µM) | relative viability (FG-4592 + Pemetrexed; first compound 2.53 µM) | relative viability (FG-4592 + Pemetrexed; first compound 8 µM) | relative viability (FG-4592 + Pemetrexed; first compound 0.8 µM) |
| --- | --- | --- | --- | --- | --- | --- | --- | --- | --- | --- | --- | --- | --- | --- | --- | --- | --- | --- | --- | --- |
| NCI-H1993 | 0.84 | 0.76 | 0.735 | 0.843 | 0.748 | 0.508 | 0.504 | 0.546 | 0.512 | 0.559 | 0.848 | 0.885 | 0.744 | 0.929 | 0.719 | 0.644 | 0.48 | 0.487 | 0.594 |  |
| NCI-H2009 | 1.24 | 1.25 | 1.18 | 1.22 | 1.23 | 0.591 | 0.565 | 0.621 | 0.476 | 0.605 | 1.02 | 0.878 | 0.888 | 0.735 | 0.924 | 1.01 | 1.16 | 1.02 | 1.06 | 1 |
| NCI-H2023 | 0.75 | 0.722 | 1 |  | 0.719 | 0.402 | 0.359 | 0.428 | 0.356 | 0.241 | 1.03 | 0.735 | 0.407 | 0.468 | 0.598 | 0.228 | 0.198 | 0.232 | 0.217 | 0.244 |
| NCI-H2085 | 0.922 | 1.19 | 0.926 | 0.922 | 0.767 | 0.788 | 0.735 | 0.648 | 0.519 | 0.652 | 0.633 | 0.747 | 0.607 | 0.723 | 0.824 | 0.934 | 0.769 | 0.863 | 1.07 | 0.81 |
